Measured values as given in ChEMBL document CHEMBL1201862, “PubChem BioAssay data set” (2004).
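Test compounds were applied to cells in 96-well plates for 48 hours at 5 doses. The concentration for 50% growth inhibition is given as GI50.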 Calls of active or inactive are those of the source. Cut-off read from the data, not from the text of the source: active = GI50 up to about 1.1 µM and inactive = higher.

Tests used:
Test in all cases: DTP human tumour cell line panel, 48 h
M19-MEL = test system: M19-MEL
HOP-18 = test system: HOP-18
LXFL 529 = test system: LXFL 529
KM-20L2 = test system: KM-20L2
XF498 = test system: XF498
DLD-1 = test system: DLD-1
DMS-114 = test system: DMS-114
SNB-78 = test system: SNB-78
RXF 631 = test system: RXF 631

| Compound | GI50 (M19-MEL) | GI50 (HOP-18) | GI50 (LXFL 529) | GI50 (KM-20L2) | GI50 (XF498) | GI50 (DLD-1) | GI50 (DMS-114) | GI50 (SNB-78) | GI50 (RXF 631) |
| --- | --- | --- | --- | --- | --- | --- | --- | --- | --- |
| O=C(O/N=C1/CCCC/C1=C\c1ccccc1)c1ccccc1 | > 100 µM (inactive) | > 100 µM (inactive) | 28.4 µM (inactive) | > 100 µM (inactive) | > 100 µM (inactive) | 30.5 µM (inactive) | 17.1 µM (inactive) | – | – |
| O=C1CC2CCN(C(=O)c3ccccc3)CC2CCN1.O=C1CCC2CC(C(=O)c3ccccc3)CCC2CN1 (centres undefined) | > 100 µM (inactive) | > 100 µM (inactive) | > 100 µM (inactive) | > 100 µM (inactive) | – | > 100 µM (inactive) | > 100 µM (inactive) | > 100 µM (inactive) | – |
| C=CCc1cc(OC)c(O)c(C(=O)/C=C/c2ccc(OC)c(OC)c2)c1 | – | – | 20.9 µM (inactive) | > 10 µM (inactive) | 14.1 µM (inactive) | 18.4 µM (inactive) | 17.8 µM (inactive) | 28.8 µM (inactive) | 25.4 µM (inactive) |
| CN1CC(C(=O)C2C(=O)c3ccccc3C2=O)C(=O)C(=O)C(C(=O)C2C(=O)c3ccccc3C2=O)C1 (centres undefined) | – | – | – | – | > 100 µM (inactive) | > 100 µM (inactive) | > 100 µM (inactive) | – | > 100 µM (inactive) |
| N#Cc1nc(Nc2ccc(Cl)cc2)sc1N | 12.4 µM (inactive) | 29.4 µM (inactive) | 3.55 µM (inactive) | 17.1 µM (inactive) | 14.3 µM (inactive) | 17.9 µM (inactive) | 3.07 µM (inactive) | 10.8 µM (inactive) | – |
| CCOC(=O)c1s/c(=N\Nc2nc3ccccc3cc2C2OCCO2)n(Cc2ccccc2)c1C | > 100 µM (inactive) | > 100 µM (inactive) | > 100 µM (inactive) | > 100 µM (inactive) | > 100 µM (inactive) | > 100 µM (inactive) | > 100 µM (inactive) | > 100 µM (inactive) | > 100 µM (inactive) |
| Cc1c2ccnc(C(N)=O)c2c(C)c2c1[nH]c1ccccc12 | 7.46 µM (inactive) | 9.48 µM (inactive) | 5.69 µM (inactive) | 6.62 µM (inactive) | 8.24 µM (inactive) | 5.07 µM (inactive) | 8.91 µM (inactive) | 14 µM (inactive) | 4.58 µM (inactive) |
| O=C1NC(=O)C(C(=O)C(=O)Nc2cccc(C(F)(F)F)c2)C(=O)N1 | > 100 µM (inactive) | – | > 100 µM (inactive) | > 100 µM (inactive) | – | > 100 µM (inactive) | > 100 µM (inactive) | > 100 µM (inactive) | – |
| N#Cc1ccccc1NC(=O)c1ccccc1 | > 100 µM (inactive) | > 100 µM (inactive) | – | > 100 µM (inactive) | > 100 µM (inactive) | > 100 µM (inactive) | – | > 100 µM (inactive) | – |
| COC(=O)[C@@H]1CSC(=S)N1C(=O)C[C@H]1CC=CC[C@H]1CC(=O)Sc1ccccc1 | 23.4 µM (inactive) | 29.8 µM (inactive) | 15.3 µM (inactive) | 20.9 µM (inactive) | 16.5 µM (inactive) | 17 µM (inactive) | – | 22.3 µM (inactive) | – |
| CC1COS(=O)N1c1ccccc1 (centres undefined) | > 100 µM (inactive) | > 100 µM (inactive) | > 100 µM (inactive) | > 100 µM (inactive) | > 100 µM (inactive) | > 100 µM (inactive) | > 100 µM (inactive) | – | – |
| Nc1nc(SCCC/C=C/B(O)O)nc2c1ncn2C1OC(COP(=O)(O)O)C(O)C1O (centres undefined) | > 203 µM (inactive) | > 203 µM (inactive) | – | > 203 µM (inactive) | > 203 µM (inactive) | > 203 µM (inactive) | > 203 µM (inactive) | > 203 µM (inactive) | – |
| Cc1nn(-c2ccccc2)c2nc(N3CCOCC3)nnc12 | > 100 µM (inactive) | < 0.01 µM (active) | 53.3 µM (inactive) | > 100 µM (inactive) | 51.8 µM (inactive) | 59.2 µM (inactive) | 34.4 µM (inactive) | > 100 µM (inactive) | 92.7 µM (inactive) |
| O=C(N/C(=C\c1ccc2c(c1)OCO2)c1nc2ccccc2[nH]1)c1ccccc1 | 3.03 µM (inactive) | 43.6 µM (inactive) | 20.4 µM (inactive) | 33.7 µM (inactive) | 15.5 µM (inactive) | 30.8 µM (inactive) | 2.39 µM (inactive) | 39.4 µM (inactive) | – |
| N#CCC(=O)N/N=C(/C(=O)Nc1ccccc1)C1C(=O)N(c2ccccc2)N=C1N (centres undefined) | > 100 µM (inactive) | > 100 µM (inactive) | > 100 µM (inactive) | > 100 µM (inactive) | > 100 µM (inactive) | > 100 µM (inactive) | > 100 µM (inactive) | > 100 µM (inactive) | > 100 µM (inactive) |
| C=CCc1cc(-c2cc(CC=C)c(O)c(CN(CCCl)CCCl)c2)cc(CN(CCCl)CCCl)c1O | 14.5 µM (inactive) | 25.2 µM (inactive) | 12.2 µM (inactive) | 16.6 µM (inactive) | > 10 µM (inactive) | 16.4 µM (inactive) | – | 35.4 µM (inactive) | 14.1 µM (inactive) |
| CC(=O)OCC(OC(C)=O)C(OC(C)=O)C(OC(C)=O)C(=O)CNn1c(-c2ccc(C)cc2)nc2ccccc2c1=O (centres undefined) | > 100 µM (inactive) | – | > 100 µM (inactive) | > 100 µM (inactive) | 16.5 µM (inactive) | – | 54.1 µM (inactive) | > 100 µM (inactive) | – |
| CC(C)N(C(=O)C12C3C4C1(I)C1C2C3(I)C41C(=O)N(C(C)C)C(C)C)C(C)C (centres undefined) | > 47 µM (inactive) | > 100 µM (inactive) | > 67.6 µM (inactive) | > 100 µM (inactive) | > 100 µM (inactive) | > 56.5 µM (inactive) | – | – | > 100 µM (inactive) |
| Nc1nc(=O)c(/N=N/c2ccccc2)c(N)[nH]1 | 39.3 µM (inactive) | 38 µM (inactive) | – | 59.2 µM (inactive) | 60.1 µM (inactive) | 43.1 µM (inactive) | 25.6 µM (inactive) | 19.6 µM (inactive) | – |
| CCCCCNC(=O)C1C(=O)N(CCCCC)C(=O)/C1=N\N (centres undefined) | 86.5 µM (inactive) | 50 µM (inactive) | 41.2 µM (inactive) | 48.6 µM (inactive) | – | 70.6 µM (inactive) | – | 23.6 µM (inactive) | – |
| COc1c(OC(C)=O)c(OC(C)=O)cc2c1-c1ccc(OC)c(=O)cc1C(NC(C)=O)CC2 (centres undefined) | < 0.0167 µM (active) | – | < 0.01 µM (active) | 0.0222 µM (active) | 0.0311 µM (active) | 0.0186 µM (active) | < 0.0127 µM (active) | < 0.01 µM (active) | 0.0676 µM (active) |
| CCCCCCCCCCCCCCCC(=O)NC1CCc2cc(O)c(O)c(O)c2-c2ccc(SC)c(=O)cc21 (centres undefined) | – | – | 1.44 µM (inactive) | 15.7 µM (inactive) | 7.26 µM (inactive) | 7.94 µM (inactive) | 1.94 µM (inactive) | 8.55 µM (inactive) | 13.2 µM (inactive) |
